Measured values from ChEMBL document CHEMBL1201862, “PubChem BioAssay data set” (2004).
Each block holds one compound with its values, some of them ahead of it. Calls of active or inactive are those of the source.

Assays:
[1] = biological target: T1, Sentrin-specific protease 7 (Homo sapiens, UniProt Q9BQF6); assay type: functional;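 also: Luminescence-based dose-response confirmation of ultra-high-throughput screening hits, measuring inhibition of SENP7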
T1 sequence (Q9BQF6 whole entry): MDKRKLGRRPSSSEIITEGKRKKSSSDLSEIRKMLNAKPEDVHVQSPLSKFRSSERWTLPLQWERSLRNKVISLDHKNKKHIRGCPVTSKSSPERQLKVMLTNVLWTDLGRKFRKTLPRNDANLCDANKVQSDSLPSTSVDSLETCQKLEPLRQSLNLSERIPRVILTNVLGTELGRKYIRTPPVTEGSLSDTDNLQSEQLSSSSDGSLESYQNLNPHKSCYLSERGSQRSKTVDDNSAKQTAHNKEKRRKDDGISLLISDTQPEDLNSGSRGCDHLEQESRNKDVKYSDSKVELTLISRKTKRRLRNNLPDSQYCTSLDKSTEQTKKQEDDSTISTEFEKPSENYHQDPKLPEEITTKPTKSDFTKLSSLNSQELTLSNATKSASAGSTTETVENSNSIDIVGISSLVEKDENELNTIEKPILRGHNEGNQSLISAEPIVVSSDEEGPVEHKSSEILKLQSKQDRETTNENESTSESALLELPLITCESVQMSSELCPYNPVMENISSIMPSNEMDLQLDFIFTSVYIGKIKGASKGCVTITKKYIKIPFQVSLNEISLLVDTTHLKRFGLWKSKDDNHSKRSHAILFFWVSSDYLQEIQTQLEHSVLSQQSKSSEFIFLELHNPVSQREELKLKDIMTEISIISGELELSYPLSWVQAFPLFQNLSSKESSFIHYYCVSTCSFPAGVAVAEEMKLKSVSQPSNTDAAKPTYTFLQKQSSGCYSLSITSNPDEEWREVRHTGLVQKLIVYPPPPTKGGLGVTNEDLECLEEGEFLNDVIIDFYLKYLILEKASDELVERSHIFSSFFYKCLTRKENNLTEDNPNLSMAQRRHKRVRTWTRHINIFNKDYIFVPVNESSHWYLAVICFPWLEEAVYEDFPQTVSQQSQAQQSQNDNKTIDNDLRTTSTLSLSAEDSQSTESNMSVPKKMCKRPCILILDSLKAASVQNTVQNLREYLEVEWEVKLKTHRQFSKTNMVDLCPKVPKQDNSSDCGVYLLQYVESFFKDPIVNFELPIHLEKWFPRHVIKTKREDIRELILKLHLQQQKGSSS

[2] = HeLa cell cytotoxicity, dose response, cytotoxicity control for MgcRacGAP inhibitor project (AID 624300); assay type: functional
[3] = biological target: T2, Serine/threonine-protein phosphatase (Homo sapiens, UniProt Q9BPW0); assay: Counterscreen for inhibitors of PP1: fluorescence-based biochemical high throughput dose response assay to identify inhibitors of Protein Phosphatase 5 (PP5). [Related pubchem assays: 2034 (Summary (PP5 inhibitors)), 1987 (PP5 inhibitors in singlate), 2235 (PP1 inhibitors in singlate)]
T2 sequence (Q9BPW0 whole entry): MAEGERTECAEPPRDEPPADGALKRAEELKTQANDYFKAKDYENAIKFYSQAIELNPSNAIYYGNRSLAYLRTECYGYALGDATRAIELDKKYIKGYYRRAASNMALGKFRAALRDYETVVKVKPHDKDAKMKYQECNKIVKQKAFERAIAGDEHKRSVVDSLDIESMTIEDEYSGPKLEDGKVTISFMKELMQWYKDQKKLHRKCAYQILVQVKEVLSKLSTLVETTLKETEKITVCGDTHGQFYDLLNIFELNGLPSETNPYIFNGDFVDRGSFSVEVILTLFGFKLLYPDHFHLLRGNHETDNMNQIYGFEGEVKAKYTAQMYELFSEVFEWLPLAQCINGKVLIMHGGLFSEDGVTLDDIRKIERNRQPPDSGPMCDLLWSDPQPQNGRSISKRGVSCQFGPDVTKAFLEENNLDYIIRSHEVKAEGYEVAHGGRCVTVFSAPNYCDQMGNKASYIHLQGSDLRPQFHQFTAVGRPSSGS

[4] = biological target: T3, Sentrin-specific protease 8 (Homo sapiens, UniProt Q96LD8); assay type: functional;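 also: kinetic enzyme assay of SENP8 cleaving a Nedd8 protein substrate, dose-response confirmation of screening hits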
T3 sequence (Q96LD8 whole entry): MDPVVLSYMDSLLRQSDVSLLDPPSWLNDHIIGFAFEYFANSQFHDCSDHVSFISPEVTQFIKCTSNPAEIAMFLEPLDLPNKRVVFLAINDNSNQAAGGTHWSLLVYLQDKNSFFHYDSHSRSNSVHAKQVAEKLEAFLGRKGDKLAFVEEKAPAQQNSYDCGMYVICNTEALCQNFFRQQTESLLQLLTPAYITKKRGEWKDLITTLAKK

[5] = biological target: 5'-AMP-activated protein kinase catalytic subunit alpha-1 (Homo sapiens, UniProt Q13131); assay type: functional
[6] = biological target: ALK tyrosine kinase receptor (Homo sapiens, UniProt Q9UM73); assay type: functional;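 also: ALK tested as one member of a kinase panel screen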
[7] = biological target: Mitogen-activated protein kinase 8 (Homo sapiens, UniProt P45983); assay type: functional;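 also: value comes from one member of a kinome-wide kinase profiling panel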
[8] = biological target: Tyrosine-protein kinase BTK (Homo sapiens, UniProt Q06187); assay type: functional
[9] = biological target: Tyrosine-protein kinase JAK3 (Homo sapiens, UniProt P52333); assay type: functional
LIM domain kinase 1 = LIM domain kinase 1 (Homo sapiens, UniProt P53667); assay: Navigating the Kinome. Panel member name: LIMK1; assay type: functional
[10] = biological target: Glycogen synthase kinase-3 alpha (Homo sapiens, UniProt P49840); assay type: functional;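 also: GSK3A result taken from a broad kinome-wide kinase panel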
[11] = biological target: Tyrosine-protein kinase ABL1 (Homo sapiens, UniProt P00519); assay type: functional
[12] = biological target: Cyclin-dependent kinase 5 (Homo sapiens, UniProt Q00535); assay type: functional;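 also: CDK5 measured as one member of a kinase profiling panel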
[13] = biological target: Inhibitor of nuclear factor kappa-B kinase subunit epsilon (Homo sapiens, UniProt Q14164); assay: Navigating the Kinome. Panel member name: IKBKE; assay type: functional
[14] = biological target: T4, Zinc finger protein mex-5 (Caenorhabditis elegans, UniProt Q9XUB2); assay: MEX-5/TCR-2 RNA interaction inhibitors, dose response, biochemical, C. elegans, fluorescence polarization (AID 1960)
T4 sequence (Q9XUB2 whole entry): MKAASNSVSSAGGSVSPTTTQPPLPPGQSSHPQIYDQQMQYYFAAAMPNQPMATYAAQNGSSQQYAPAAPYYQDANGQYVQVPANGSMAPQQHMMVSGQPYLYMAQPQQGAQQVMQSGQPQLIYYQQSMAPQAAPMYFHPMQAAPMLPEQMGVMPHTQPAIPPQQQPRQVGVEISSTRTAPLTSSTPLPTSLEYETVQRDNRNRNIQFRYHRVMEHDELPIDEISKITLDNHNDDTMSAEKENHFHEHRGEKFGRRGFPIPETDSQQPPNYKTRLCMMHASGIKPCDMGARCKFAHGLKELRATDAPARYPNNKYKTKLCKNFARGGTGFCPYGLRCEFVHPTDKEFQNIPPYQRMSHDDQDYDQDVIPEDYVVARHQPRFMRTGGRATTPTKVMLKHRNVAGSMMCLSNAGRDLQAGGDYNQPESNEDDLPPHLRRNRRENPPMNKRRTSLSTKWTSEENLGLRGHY

Glycogen synthase kinase-3 alpha, sequence (P49840 whole entry): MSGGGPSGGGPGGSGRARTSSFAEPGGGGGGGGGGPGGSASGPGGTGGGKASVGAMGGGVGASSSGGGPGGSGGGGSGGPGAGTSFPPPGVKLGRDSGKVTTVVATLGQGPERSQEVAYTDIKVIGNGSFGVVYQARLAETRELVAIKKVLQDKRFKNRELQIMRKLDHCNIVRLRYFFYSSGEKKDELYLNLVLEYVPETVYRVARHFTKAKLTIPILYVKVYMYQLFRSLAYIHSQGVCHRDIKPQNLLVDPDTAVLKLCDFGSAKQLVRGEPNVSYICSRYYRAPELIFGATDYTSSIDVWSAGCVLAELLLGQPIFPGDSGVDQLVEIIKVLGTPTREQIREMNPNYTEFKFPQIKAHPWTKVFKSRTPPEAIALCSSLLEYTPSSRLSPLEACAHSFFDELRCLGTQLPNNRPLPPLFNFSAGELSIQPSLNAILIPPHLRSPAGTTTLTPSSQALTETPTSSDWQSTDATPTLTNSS
Inhibitor of nuclear factor kappa-B kinase subunit epsilon, sequence (Q14164 whole entry): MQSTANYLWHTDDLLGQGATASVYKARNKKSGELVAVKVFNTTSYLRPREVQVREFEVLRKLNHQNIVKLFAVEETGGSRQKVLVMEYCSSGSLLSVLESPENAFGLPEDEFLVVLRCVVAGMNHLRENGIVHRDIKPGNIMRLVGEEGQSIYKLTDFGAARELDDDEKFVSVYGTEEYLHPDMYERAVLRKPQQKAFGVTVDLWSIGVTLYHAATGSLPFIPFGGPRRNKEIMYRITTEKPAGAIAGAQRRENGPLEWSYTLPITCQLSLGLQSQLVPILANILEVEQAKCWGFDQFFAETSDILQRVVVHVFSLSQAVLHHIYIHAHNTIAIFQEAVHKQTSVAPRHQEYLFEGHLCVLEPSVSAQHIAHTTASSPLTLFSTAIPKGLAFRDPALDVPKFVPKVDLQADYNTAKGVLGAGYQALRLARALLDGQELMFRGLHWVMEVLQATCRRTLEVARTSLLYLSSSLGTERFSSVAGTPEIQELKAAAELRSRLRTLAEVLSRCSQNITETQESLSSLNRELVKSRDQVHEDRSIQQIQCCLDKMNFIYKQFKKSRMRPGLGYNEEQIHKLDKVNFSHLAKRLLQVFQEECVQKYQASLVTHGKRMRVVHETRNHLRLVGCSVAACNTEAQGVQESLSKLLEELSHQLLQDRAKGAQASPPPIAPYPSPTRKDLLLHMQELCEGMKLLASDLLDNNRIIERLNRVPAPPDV
5'-AMP-activated protein kinase catalytic subunit alpha-1, sequence (Q13131 whole entry): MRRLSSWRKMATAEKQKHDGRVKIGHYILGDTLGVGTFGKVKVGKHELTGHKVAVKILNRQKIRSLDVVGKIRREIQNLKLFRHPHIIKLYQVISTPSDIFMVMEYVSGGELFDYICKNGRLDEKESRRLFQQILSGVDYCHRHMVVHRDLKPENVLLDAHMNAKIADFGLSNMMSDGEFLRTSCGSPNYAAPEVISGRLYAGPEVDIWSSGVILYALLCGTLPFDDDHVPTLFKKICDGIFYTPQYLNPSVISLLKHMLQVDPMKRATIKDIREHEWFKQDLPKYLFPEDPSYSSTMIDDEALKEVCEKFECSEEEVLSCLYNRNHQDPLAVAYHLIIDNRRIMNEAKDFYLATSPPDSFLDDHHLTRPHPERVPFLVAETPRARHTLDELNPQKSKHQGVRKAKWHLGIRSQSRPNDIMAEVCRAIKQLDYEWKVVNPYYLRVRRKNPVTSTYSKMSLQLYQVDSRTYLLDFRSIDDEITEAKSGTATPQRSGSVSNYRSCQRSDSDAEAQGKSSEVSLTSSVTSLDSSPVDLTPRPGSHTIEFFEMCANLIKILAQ
Tyrosine-protein kinase JAK3, sequence (P52333 whole entry, the tested form may be a part): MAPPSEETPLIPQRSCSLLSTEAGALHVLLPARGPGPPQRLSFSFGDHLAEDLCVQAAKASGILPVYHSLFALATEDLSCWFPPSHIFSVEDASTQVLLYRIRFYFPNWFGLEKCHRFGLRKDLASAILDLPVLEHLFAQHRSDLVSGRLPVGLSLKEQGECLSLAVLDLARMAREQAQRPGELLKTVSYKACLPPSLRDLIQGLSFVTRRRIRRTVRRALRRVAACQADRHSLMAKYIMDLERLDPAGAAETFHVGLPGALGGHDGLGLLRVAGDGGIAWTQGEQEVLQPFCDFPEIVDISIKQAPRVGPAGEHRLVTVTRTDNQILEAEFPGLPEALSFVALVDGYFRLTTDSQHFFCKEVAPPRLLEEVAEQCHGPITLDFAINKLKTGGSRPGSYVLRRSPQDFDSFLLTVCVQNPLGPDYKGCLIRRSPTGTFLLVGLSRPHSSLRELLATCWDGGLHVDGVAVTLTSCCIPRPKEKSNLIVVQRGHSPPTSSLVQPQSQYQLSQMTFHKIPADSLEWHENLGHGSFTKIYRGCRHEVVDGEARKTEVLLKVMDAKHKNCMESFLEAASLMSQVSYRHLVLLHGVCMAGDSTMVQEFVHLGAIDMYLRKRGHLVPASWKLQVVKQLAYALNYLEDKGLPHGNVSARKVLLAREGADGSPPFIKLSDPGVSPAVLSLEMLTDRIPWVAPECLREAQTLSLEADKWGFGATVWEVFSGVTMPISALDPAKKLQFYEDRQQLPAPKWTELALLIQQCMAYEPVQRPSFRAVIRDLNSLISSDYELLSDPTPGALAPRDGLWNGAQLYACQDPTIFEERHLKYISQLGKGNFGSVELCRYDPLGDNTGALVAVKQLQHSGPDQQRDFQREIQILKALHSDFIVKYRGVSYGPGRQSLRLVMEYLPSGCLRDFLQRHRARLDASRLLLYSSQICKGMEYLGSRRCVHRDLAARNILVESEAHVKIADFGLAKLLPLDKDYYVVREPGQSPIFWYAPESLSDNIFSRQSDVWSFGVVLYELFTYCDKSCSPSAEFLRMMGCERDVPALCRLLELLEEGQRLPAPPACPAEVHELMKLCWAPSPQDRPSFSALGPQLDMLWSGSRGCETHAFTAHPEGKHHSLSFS
Mitogen-activated protein kinase 8, sequence (P45983 whole entry): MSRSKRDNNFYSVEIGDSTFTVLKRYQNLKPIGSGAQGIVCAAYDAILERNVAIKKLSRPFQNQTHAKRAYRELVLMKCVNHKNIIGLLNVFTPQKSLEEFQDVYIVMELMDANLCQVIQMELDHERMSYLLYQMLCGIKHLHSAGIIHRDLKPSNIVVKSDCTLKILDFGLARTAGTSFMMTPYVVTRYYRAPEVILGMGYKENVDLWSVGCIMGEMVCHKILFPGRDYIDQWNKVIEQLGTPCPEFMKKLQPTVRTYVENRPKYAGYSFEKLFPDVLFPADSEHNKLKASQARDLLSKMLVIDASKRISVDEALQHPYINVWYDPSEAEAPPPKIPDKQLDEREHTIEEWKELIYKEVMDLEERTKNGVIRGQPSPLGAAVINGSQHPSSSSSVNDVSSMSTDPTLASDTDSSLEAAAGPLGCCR
Tyrosine-protein kinase BTK, sequence (Q06187 whole entry): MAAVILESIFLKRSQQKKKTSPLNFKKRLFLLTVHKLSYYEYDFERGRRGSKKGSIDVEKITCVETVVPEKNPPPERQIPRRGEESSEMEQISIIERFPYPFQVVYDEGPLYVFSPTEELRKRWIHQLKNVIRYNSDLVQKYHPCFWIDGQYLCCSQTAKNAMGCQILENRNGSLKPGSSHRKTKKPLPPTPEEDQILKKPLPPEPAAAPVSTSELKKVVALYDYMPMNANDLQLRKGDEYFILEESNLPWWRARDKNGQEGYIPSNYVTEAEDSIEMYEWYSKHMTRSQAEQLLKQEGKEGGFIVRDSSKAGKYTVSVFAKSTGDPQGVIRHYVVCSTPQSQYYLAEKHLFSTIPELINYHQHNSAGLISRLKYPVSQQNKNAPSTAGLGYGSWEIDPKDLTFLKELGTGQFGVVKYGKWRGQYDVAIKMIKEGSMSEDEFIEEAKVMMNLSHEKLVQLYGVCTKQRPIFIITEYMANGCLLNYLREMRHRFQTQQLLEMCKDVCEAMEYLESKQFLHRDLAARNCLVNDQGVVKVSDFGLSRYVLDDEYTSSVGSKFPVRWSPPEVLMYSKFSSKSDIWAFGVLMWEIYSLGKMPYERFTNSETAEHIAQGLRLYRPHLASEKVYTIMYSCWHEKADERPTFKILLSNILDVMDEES
Cyclin-dependent kinase 5, sequence (Q00535 whole entry): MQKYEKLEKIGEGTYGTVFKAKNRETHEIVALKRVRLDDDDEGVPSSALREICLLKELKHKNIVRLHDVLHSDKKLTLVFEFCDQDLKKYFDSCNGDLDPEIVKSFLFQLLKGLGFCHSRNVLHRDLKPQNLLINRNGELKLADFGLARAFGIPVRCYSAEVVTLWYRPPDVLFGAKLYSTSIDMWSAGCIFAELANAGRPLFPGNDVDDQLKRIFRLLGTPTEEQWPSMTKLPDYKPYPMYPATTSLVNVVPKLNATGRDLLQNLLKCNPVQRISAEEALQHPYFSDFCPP
LIM domain kinase 1, sequence (P53667 whole entry, the tested form may be a part): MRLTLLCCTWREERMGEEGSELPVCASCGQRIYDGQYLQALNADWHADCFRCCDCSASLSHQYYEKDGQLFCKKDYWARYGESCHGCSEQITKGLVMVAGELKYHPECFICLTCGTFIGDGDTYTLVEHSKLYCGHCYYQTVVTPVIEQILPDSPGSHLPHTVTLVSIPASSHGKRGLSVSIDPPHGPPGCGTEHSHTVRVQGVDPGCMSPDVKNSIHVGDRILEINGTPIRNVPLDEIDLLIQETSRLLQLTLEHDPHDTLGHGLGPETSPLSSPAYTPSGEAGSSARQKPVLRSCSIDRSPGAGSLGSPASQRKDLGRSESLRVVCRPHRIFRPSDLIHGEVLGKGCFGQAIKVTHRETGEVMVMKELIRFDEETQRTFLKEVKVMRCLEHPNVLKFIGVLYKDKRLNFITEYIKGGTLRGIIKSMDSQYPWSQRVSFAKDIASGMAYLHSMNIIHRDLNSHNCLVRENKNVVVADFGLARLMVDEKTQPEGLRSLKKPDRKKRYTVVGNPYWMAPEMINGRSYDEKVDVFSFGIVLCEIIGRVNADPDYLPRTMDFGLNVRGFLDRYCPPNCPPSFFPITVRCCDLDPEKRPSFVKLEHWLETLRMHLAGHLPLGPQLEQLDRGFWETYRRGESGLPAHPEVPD

Compound: CC(=O)N(C1=C(Cl)C(=O)c2ccccc2C1=O)c1ccc(C(=O)O)cc1
IC50 [1]: 8.9 µM (active)
CC50 [2]: 36.1 µM (active)

Compound: CC1(C)C=C2C(=NN(c3ccccc3)C(N)=C2C#N)CO1
IC50 [3]: > 0.828 µM (active)
IC50 [4]: 0.0173 µM (active)

Ki [5]: 3.16 µM (active)
Ki [6]: > 6.31 µM (inactive)
Ki [7]: > 5.01 µM (inactive)
Ki [8]: > 6.31 µM (inactive)
Ki [9]: > 5.01 µM (inactive)
Ki (LIM domain kinase 1): > 3.16 µM (inactive)
Ki [10]: > 3.98 µM (inactive)
Ki [11]: 0.794 µM (active)
Ki [12]: 0.00794 µM (active)
Ki [13]: > 3.16 µM (inactive)
Compound: Cc1ccc(-c2cc3nc(Br)cnc3[nH]2)cc1

Compound: O=C1C=C(O)c2c(O)cc(O)c(O)c2C1=O
EC50 [14]: 0.899 µM (active)
